The text below walks through data of US9499493B2, “2,4-pyrimidinediamine compounds and their uses” (Rigel Pharmaceuticals, Inc., priority 2002, dated 2016).

Experiment [1] deals with cultured human mast cells (CHMC). Briefly: CHMC low cell density IgE activation: tryptase assay. It is filed as cell-based. The note with it: anti-IgE. A digest of the protocol: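 Cells pelleted, taken up in warm MT, plated at 1000-1500/well, held 1 hr 37° C. Anti-IgE added, 30 min 37° C. Plates spun; supernatant mixed with tryptase substrate, 30 min RT.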
Experiment [2] has the same test system. Briefly: CHMC low cell density ionomycin activation: tryptase assay. Type of experiment: cell-based.

pIC50: −log10 of the molar value.

As for `Fc1cnc(Nc2ccc3[nH]ncc3c2)nc1Nc1ccc2c(c1)OC(F)(F)O2` [R935373, N4-(3,4-Difluoromethylendioxyphenyl)-5-fluoro-N2-(indazoline-5-yl)-2,4-pyrimidinediamine], the pIC50 in experiment [1] is 6.56; in experiment [2], less than 5.00.
`Fc1cnc(Nc2ccc3cn[nH]c3c2)nc1Nc1ccc2c(c1)OC(F)(F)O2` [R935374, N4-(3,4-Difluoromethylendioxyphenyl)-5-fluoro-N2-(indazoline-6-yl)-2,4-pyrimidinediamine]: the figures for the pIC50 in experiment [1] and in experiment [2] were 6.45 and less than 5.00, respectively.
For `Cn1ncc2cc(Nc3ncc(F)c(Nc4ccc(Cl)nc4)n3)ccc21` [R935375, N4-(6-Chloro-3-pyridyl)-5-fluoro-N2-(1-methylindazoline-5-yl)-2,4-pyrimidinediamine], the pIC50 in experiment [1] is 5.00; in experiment [2] it was less than 5.00.
On to `CNC(=O)CCn1ncc2cc(Nc3ncc(F)c(Nc4ccc(Cl)nc4)n3)ccc21` [R935378, N4-(6-Chloro-3-pyridyl)-5-fluoro-N2-[1-[2(N-methylaminocarbonyl)ethyl]indazoline-5-yl]-2,4-pyrimidinediamine], for which the pIC50 in experiment [1] is 6.25; in experiment [2], less than 5.00.
For `COc1ccc(Nc2ncc([N+](=O)[O-])c(Nc3ccc(OC)c(OC)c3)n2)cc1OC` [R940089, N2,N4-Bis-(3,4-dimethoxyphenyl)-5-nitro-2,4-pyrimidinediamine], the pIC50 was less than 5.00 in experiment [1] (Homo sapiens, Mast cell) and less than 5.00 in experiment [2] (Homo sapiens, Mast cell).
With `CCOc1ccc(Nc2ncc([N+](=O)[O-])c(Nc3ccc(OCC)cc3)n2)cc1` [R940090, N2,N4-Bis-(4-ethoxyphenyl)-5-nitro-2,4-pyrimidinediamine], the pIC50 was less than 5.00 in experiment [1] (Homo sapiens, Mast cell) and less than 5.00 in experiment [2] (Homo sapiens, Mast cell).
In the case of `CCOC(=O)COc1cccc(Nc2ncc(F)c(Nc3cc(C)c(O)c(C)c3)n2)c1` [R940253, N4-(3,5-Dimethyl-4-hydroxyphenyl)-N2-(3-ethoxycarbonylmethyleneoxyphenyl)-5-fluoro-2,4-pyrimidinediamine], the pIC50 in experiment [1] is 6.00; in experiment [2], less than 5.00.
Take `Cc1cc(Nc2nc(Nc3cccc(OCC(=O)N4CCOCC4)c3)ncc2F)cc(C)c1O` [R940254, N4-(3,5-Dimethyl-4-hydroxyphenyl)-5-fluoro-N2-[3-(N-morpholino)carbonylmethyleneoxyphenyl]-2,4-pyrimidinediamine]: the values for the pIC50 in experiment [1] and in experiment [2] were 6.01 and less than 5.00, respectively.
The corresponding values for `COc1ccc(Nc2nc(NC3CCN(Cc4ccccc4)CC3)ncc2F)cc1OC` [R940263, N2-[4-(N-Benzylpiperidino)]-N4-(3,4-dimethoxyphenyl)-5-fluoro-2,4-pyrimidinediamine] are less than 5.00 and less than 5.00.
On to `Oc1cccc(Nc2nc(NC3CCN(Cc4ccccc4)CC3)ncc2F)c1` [R940264, N2-[4-(N-Benzylpiperidino)]-5-fluoro-N4-(3-hydroxyphenyl)-2,4-pyrimidinediamine], for which the pIC50 in experiment [1] was 5.00; in experiment [2], less than 5.00.
In the case of `CCOC(=O)COc1cccc(Nc2nc(Nc3cccc(C(C)(C)C)c3)ncc2F)c1` [R940266, N2-(3-tert-Butylphenyl)-N4-(3-ethoxycarbonylmethyleneoxyphenyl)-5-fluoro-4-pyrimidinediamine], the pIC50 in experiment [1] and in experiment [2] was less than 5.00 throughout.
In the case of `CNC(=O)COc1cccc(Nc2nc(Nc3cccc(C(C)(C)C)c3)ncc2F)c1` [R940267, N2-(3-tert-Butylphenyl)-N4-[3-(N-methylamino)carbonylmethyleneoxyphenyl]-5-fluoro-2,4-pyrimidinediamine], the pIC50 is 5.50 in experiment [1] and less than 5.00 in experiment [2].
`CCOC(=O)COc1cccc(Nc2ncc(F)c(Nc3cccc(C(C)(C)C)c3)n2)c1` [R940270, N4-(3-tert-Butylphenyl)-N2-(3-ethoxycarbonylmethyleneoxyphenyl)-5-fluoro-2,4-pyrimidinediamine]: the pIC50 in experiment [1] was 5.67; in experiment [2] it was 5.06.
The matching figures for `CC(C)(C)c1cccc(Nc2nc(Nc3cccc(OCC(=O)O)c3)ncc2F)c1` [R940280, N4-(3-tert-Butylphenyl)-N2-[3-carboxymethyleneoxyphenyl]-5-fluoro-2,4-pyrimidinediamine]: 5.15 and less than 5.00.
Consider `CC(C)(C)c1cccc(Nc2nc(Nc3cccc(OCCO)c3)ncc2F)c1` [R940282, N4-(3-tert-Butylphenyl)-5-fluoro-N2-[3-(2-hydroxyethyleneoxy)phenyl]-2,4-pyrimidinediamine], for which the pIC50 in experiment [1] is 6.40; in experiment [2] it was 5.52.
As to `CCOC(=O)COc1cccc(Nc2ncc(F)c(Nc3ccc4c(c3)C(=O)OC4)n2)c1` [R940285, N2-[3-Ethoxycarbonylmethyleneoxyphenyl]-N4-(3,3-dihydroisobenzofuranyl-1-one-6-yl)-5-fluoro-2,4-pyrimidinediamine], the pIC50 in experiment [1] was 5.46; in experiment [2], less than 5.00.
The matching figures for `CC(C)c1cccc(Nc2nc(Nc3ccc4oc(CO)cc4c3)ncc2F)c1` [R940286, 5-Fluoro-N4-(3-isopropylphenyl)-N2-[(2-hydroxymethylene]benzofur-5-yl]-2,4-pyrimidinediamine]: 6.47 and 5.15.
The corresponding values for `CC(C)(C)c1cccc(Nc2nc(Nc3ccc4oc(CO)cc4c3)ncc2F)c1` [R940287, N4-(3-tert-Butylphenyl)-5-fluoro-N2-[(2-hydroxymethylene)benzofur-5-yl]-2,4-pyrimidinediamine] are 6.54 and 5.11.
On to `CNC(=O)COc1cccc(Nc2ncc(F)c(Nc3cccc(C(C)C)c3)n2)c1` [R940288, 5-Fluoro-N4-(3-isopropylphenyl)-N2-[3-(N-methylamino)carbonylmethyleneoxyphenyl]-2,4-pyrimidinediamine], for which the pIC50 in experiment [1] is 6.68; in experiment [2], less than 5.00.
In the case of `CC(C)c1cccc(Nc2nc(Nc3cccc(OCCO)c3)ncc2F)c1` [R940289, 5-Fluoro-N2-[3-(2-hydroxyethyleneoxy)phenyl]-N4-(3-isopropylphenyl)-2,4-pyrimidinediamine], the pIC50 in experiment [1] is 6.57; in experiment [2] it was less than 5.00.
The corresponding values for `OCCOc1cccc(Nc2ncc(F)c(Nc3ccc(CO)c(CO)c3)n2)c1` [R940292, N4-[3,4-Bis(hydroxymethyl)phenyl]-5-fluoro-N2-[3-(2-hydroxyethyleneoxy)phenyl]-2,4-pyrimidinediamine] are 6.17 and less than 5.00.
Regarding `O=C(COc1cccc(Nc2ncc(F)c(Nc3ccc4c(c3)C(=O)OC4)n2)c1)NCC(O)CO` (stereo not shown) [R940293, N4-(3,3-Dihydroisobenzofuran-1-one-6-yl)-N2-[3-(N-2,3-dihydroxypropylamino)carbonylmethyleneoxyphenyl]-5-fluoro-2,4-pyrimidinediamine], the pIC50 in experiment [1] and in experiment [2] was less than 5.00 throughout.
Consider `COC(=O)c1cc2cc(Nc3ncc(F)c(Nc4ccc5c(c4)C(=O)OC5)n3)ccc2o1` [R940294, N4-(3,3-Dihydroisobenzofuranyl-1-one-6-yl)-5-fluoro-N2-(2-methoxycarbonylbenzofur-5-yl)-2,4-pyrimidinediamine], for which the pIC50 in experiment [1] was 5.86; in experiment [2], less than 5.00.

By pIC50 is commonly meant the IC50 on a negative log10 scale, so that one unit is a factor of ten. The low end stands for a large IC50, the high end for a small IC50.
